Reference: patent US8754093B2, “Co-crystal of etravirine and nicotinamide” (Janssen R&D Ireland, priority 2009, dated 2014)

Assays:
[1] = cited from earlier work
[2] = traditional formulations; cited from earlier work
[3] = Dissolution experiments with TMC125/nicotinamide co-crystal (10 mM HCl with 1% TPGS, HPLC); assay type: physicochemical; conditions: Simulated Gastric Fluid with 1% TPGS, 37° C., 500 rpm
Protocol: This dissolution experiment was focused on looking at the difference between the cocrystal and TMC125 free base both neat and mixed with HPMC E5 Cps.
A: 100 mg co-crystal: 100 mg HPMC E5 Cps (powder blend)
B: 100 mg co-crystal (powder)
C: 78 mg free base: 100 mg HPMC E5 Cps (powder blend)
D: 78 mg free base (powder)
Powders were dispensed to 20 mL vials and in 20 mL of 10 mM HCl with 1% TPGS (d-alpha-tocopheryl polyethylene glycol 1000 succinate) was added to each vial. Each […], filtered through a 0.45 μm nylon filter via centrifugation and the solute was diluted in half and analyzed by HPLC for the concentration of TMC125.

For `Cc1cc(C#N)cc(C)c1Oc1nc(Nc2ccc(C#N)cc2)nc(N)c1Br` [Neat TMC125 FB, 4-[[6-amino-5-bromo-2-[(4-cyanophenyl)amino]-4-pyrimidinyl]oxy]-3,5-dimethylbenzonitrile], the “solubility in aqueous media” value [1] is given as “very insoluble”, the bioavailability [2] is given as “very low” and the “Concentration of TMC125” value ([3]; time 5 min) is given as 22.36 µg/mL. The “Concentration of TMC125” value ([3]; time 10 min) was 52.04 µg/mL, the “Concentration of TMC125” value ([3]; time 20 min) was 57.03 µg/mL and the “Concentration of TMC125” value ([3]; time 30 min) was 58.96 µg/mL. For the same compound, the “Concentration of TMC125” value ([3]; time 45 min) was 59.83 µg/mL and the “Concentration of TMC125” value ([3]; time 60 min) was 60.10 µg/mL.
